# Results published in patent US20210063374A1, “ABNORMAL CARDIAC RHYTHM MYOCARDIAL MODEL AND METHOD FOR PRODUCING SAME, AGENT FOR FORMING ABNORMAL CARDIAC RHYTHM MYOCARDIAL MODEL, AND METHOD FOR EVALUATING DRUG EFFICACY OF HEART DISEASE THERAPEUTIC” (TOPPAN PRINTING CO., LTD., priority 2017, published 2021).
# “Also recorded” adds a separate entry of the source.
# Tested on: myocardial models composed of three-dimensional tissues (iPS-CM 75%/NHCF 25%)
# Experiment: Evaluation of drug response to isoproterenol (change rate of the number of beats of myocardial model)
# Assay type: cell-based, human
# Settings: 100 nM isoproterenol, 30, 60, 80 min incubation, FIG. 12
# Experimental: 5 mL of 10× phosphate buffered saline (PBS) was added to 50 mg of a pig skin-derived type I collagen (provided by NH Foods Ltd.), and was subjected to homogenization by using a homogenizer for 6 min. Subsequently, centrifugation was performed at 10000 rpm for 3 min to remove the supernatant. 5 mL of serum-free DMEM was added thereto, followed by washing by pipetting for 1 min. After the washing, centrifugation was performed at 10000 rpm for 3 min to remove the supernatant. 5 mL of serum-containing DMEM was added thereto to prepare a culture medium (CMF concentration: 9.8 mg/mL) having fragmented collagens (CMF) dispersed therein. Dispersions were weighed from the culture medium having CMF dispersed therein such that the amounts of CMFs were 0, 1, 2, and 3 mg, were mixed with 5×10^5 cells of iPS-CM 75%/NHCF 25%, and were seeded in a 96-well round-bottomed non-adherent plate (the amount of the culture medium: 300 μL). Subsequently, centrifugation was performed at 1100 g for 5 min to precipitate the CMFs and the cells. After the centrifugation, culturing was performed in a culture-ware at 37° C. The culture medium was replaced every 2 days by removing the old culture medium and adding 300 μL of new culture medium.
# A three-dimensional tissue was constructed in the same manner as above. […] The content of the collagen in the three-dimensional tissue was measured using the kit above according to the standard protocol of the kit.
# The cardiac rhythms of the tissues after culturing for 5 to 6 days were taken using a SONY Motion analyzer to measure the number of beats. […] From the results of measurement, the change rate of the number of beats (change rate of beating) by adding isoproterenol was calculated from the following equation. […]
# The change rate of the number of beats caused by addition of isoproterenol is determined by the equation above, and this value is corrected by the equation below, i.e., by dividing this value by the change rate of the number of beats when the drug is not added (=a change in the number of beats caused by replacement of the culture medium).
smiles,measurement,setting,value
CC(C)NCC(O)c1ccc(O)c(O)c1 (stereo not drawn) [isoproterenol],drug response (change rate of the number of beats),myocardial model with 0 mg CMFs,poor
same,drug response (change rate of the number of beats),myocardial model with 1 mg CMFs,exhibited; also recorded: more favorable drug response
same,drug response (change rate of the number of beats),myocardial model with 3 mg CMFs,exhibited
